Test results published in patent US20250051762A1, “PLATFORM USING DNA-ENCODED SMALL MOLECULE LIBRARIES AND RNA SELECTION TO DESIGN SMALL MOLECULES THAT TARGET RNA” (University of Florida Research Foundation, Incorporated, priority 2021, published 2025).
pIC50: −log10 of the molar value.

Experiments:
Assay type in all cases: cell-based, human
pri-miR-27a [1] = assay: RT-qPCR of pri- and mature miR-27a in MDA-MB-231 TNBC cells; conditions: MDA-MB-231, RT-qPCR
Method: (§1) Cell lines. Compounds were tested in MDA-MB-231 TNBC cells (HTB-26, ATCC), LNCaP metastatic prostate cancer cells (gifted from Junli Luo lab), MCF-7 (HTB-22, ATCC) breast cancer cells, HeLa cervical adenocarcinoma cells (CCL-2, ATCC), and MCF-10a, a model of healthy breast epithelial cells (CRL-10317, ATCC).
Cell culture and compound treatment. All cells were maintained at 37° C. with 5% CO2. MDA-MB-231 and LNCaP cells were cultured in RPMI 1640 medium with L-glutamine & 25 mM HEPES (Corning) supplemented with 10% (v/v) fetal bovine serum (FBS; Sigma) and 1× (v/v) Antibiotic-Antimycotic solution (Corning). MCF-7 and HeLa cells were cultured in DMEM medium with 4.5 g/L glucose (Corning), supplemented with 10% FBS, 1× (v/v) Glutagro (Corning), and 1× (v/v) Antibiotic-Antimycotic solution. MCF10a cells were cultured in DMEM/F12 50/50 with L-glutamine & 15 mM HEPES (Corning), supplemented with 10% FBS, 20 ng/mL human epidermal growth factor (Pepro Tech Inc.), […] hydrocortisone (Pfaltz & Bauer), 100 ng/mL cholera toxin (Sigma-Aldrich), 10 μg/mL insulin (Sigma-Aldrich), and 1× (v/v) Antibiotic-Antimycotic solution.
MCF-10a cells were transfected with plasmids to express pri-miR-27a and mutant pri-miR-27a in 12- or 24-well plates with Lipofectamine 2000 per the manufacturer's protocol. For treatment of compounds, stocks were diluted in growth medium and added to cells for 48 h. The miRCURY miR-27a LNA inhibitor (QIAGEN, Cat #339121) was used as a positive control by diluting in growth medium to a final concentration of 1 nM. The miRCURY LNA Negative Control (QIAGEN, Cat #YI00199007-DDA) was used as a negative control, which has also diluted in growth medium to a final concentration of 1 nM.
Analysis of mRNA abundance: Each cell line was grown as a monolayer in 12- or 24-well plates and treated as described in “Cell culture and compound treatment”. After 48 h, the cells were lysed, and total RNA was harvested using a Zymo Quick RNA Miniprep Kit per the manufacturer's protocol. To measure the abundance of mature miRNAs, approximately 250 ng of total RNA was reverse transcribed using the High Flex Buffer provided in a miScript II RT Kit (Qiagen) per the manufacturer's protocol (10 μL total reaction volume). For pri-miRNAs and mRNA, approximately 300 ng of total RNA was reverse transcribed using a qScript cDNA synthesis kit (10 μL total reaction volume, Quanta BioSciences). For all types of RNAs, 2 μL of the RT reaction was used for qPCR using SYBR Green Master Mix and a QuantStudio™ 5 Real-Time PCR System. Relative abundance of mature miRNAs was calculated by normalizing to RNU6, and relative abundance for pri-miRNAs and mRNAs was calculated by normalizing to 18S ribosomal RNA, using the […]. (12)

mutant pri-miR-27a = assay: RT-qPCR of miR-27a biogenesis in MCF-10a cells transfected with mutant pri-miR-27a; conditions: mutant plasmid, 48 h
Source text: (§2) To gauge the specificity of 9 for pri-miR-27a, inhibition of biogenesis was first studied in a cellular model of healthy breast epithelium, MCF-10a, in which miR-27a expression is not detectable (Ct>31). MCF-10a cells were transfected with a plasmid encoding WT pri-miR-27a or mutant in which the two 5′GAG/3′CCC internal loops at and nearby the Drosha processing site were mutated to base pairs. In the absence of compound treatment, both primary miRNA transcripts were processed similarly, generating mature miR-27a, as determined by RT-qPCR.
as §1
(§3) Cell culture and compound treatment. All cells were maintained at 37° C. with 5% CO2. […]
(§4) Analysis of mRNA abundance: Each cell line was grown as a monolayer in 12- or 24-well plates and treated as described in “Cell culture and compound treatment”. […] Relative abundance of mature miRNAs was calculated by normalizing to RNU6, and relative abundance for pri-miRNAs and mRNAs was calculated by normalizing to 18S ribosomal RNA, using the AAC, method. […]

miR-23a = assay: RT-qPCR of mature miR-23a in MDA-MB-231 cells
Method: as §1
(§5) Cell culture and compound treatment. All cells were maintained at 37° C. with 5% CO2. MDA-MB-231 and LNCaP cells were cultured in RPMI 1640 medium with L-glutamine & 25 mM HEPES (Corning) supplemented with 10% (v/v) fetal bovine serum (FBS; Sigma) and 1× (v/v) Antibiotic-Antimycotic solution (Corning). MCF-7 and HeLa cells were cultured in DMEM medium with 4.5 g/L glucose (Corning), supplemented with 10% FBS, 1× (v/v) Glutagro (Corning), and 1× (v/v) Antibiotic-Antimycotic solution. […]
as §4

pri-miR-27a [2] = assay: RT-qPCR of pri- and mature miR-27a in HeLa cells
Method: as §1, §5, §4

WT pri-miR-27a = assay: RT-qPCR of miR-27a biogenesis in MCF-10a cells transfected with WT pri-miR-27a; conditions: WT pri-miR-27a plasmid, 48 h
Source text: as §2, §1, §3, §4

## C#CCN(CC(N)=O)C(=O)C[C@H](Cc1c[nH]c2ccccc12)NC(=O)[C@@H]1C[C@H](NC(=O)Cn2c(=O)[nH]c3ccccc3c2=O)CN1 [Compound 9]
pri-miR-27a [1]
  inhibition of miR-27a (comparison of 5, 7, 9, 10): inhibited miR-27a to a greater extent than 5 and 7
pri-miR-27a [1]; 48 h
  pri-miR-27a levels: increased
pri-miR-27a [1]; 48 h, read-out: IC50 for reduction of mature miR-27a levels
  pIC50: ~6.00
Mutant pri-miR-27a
  inhibition of biogenesis of mutated pri-miR-27a: did not inhibit biogenesis
miR-23a
  effect on levels of mature miR-23a: no effect
pri-miR-27a [2]
  dose with significant inhibition of miR-27a processing: 100 nM
WT pri-miR-27a
  mature miR-27a levels: reduction
  pri-miR-27a levels: increase
